Tests used:
h-cGAS = h-cGAS (Homo sapiens, UniProt Q8N884); experiment: Cell-free human cGAS enzyme inhibition assay (ATP depletion, Kinase-Glo Max); assay type: biochemical; settings: 3 h; for inhibition at 1 µM: read-out: h-cGAS, conc. 1 μM; for inhibition at 10 µM: read-out: h-cGAS, conc. 10 μM
Protocol: (§1) Cell-free mouse and human cGAS enzyme inhibition assay (Table 2). Activity of all compounds (in Table 1) against m-cGAS (30 nM) and or h-cGAS, (100 nM) was determined by measuring the conversion of ATP and GTP (100 μM each) to cGAMP in the presence of dsDNA (5 ug/mL) in a reaction buffer composed of Tris-HCl (20 mM, pH7.4), NaCl (150 mM), MnCl2 (0.2 mM, h-cGAS) or MgCl2 (5 mM, m-cGAS) and Tween-20 (0.01%), and the remaining ATP concentration using Kinase-Glo®Max Luminescent Kinase Assay (Promega, Madison, WI), as described (Lama, et. al., 2019). Briefly, 10 μl of a master mix of 0.4 mM ATP, 0.4 mM GTP, 0.02 mg/mL dsDNA in the reaction buffer supplemented with 2 mM DTT was added to reaction wells containing TDI-6570 or TDI-8246 (2× of the desired concentration) in the same buffer ([…]) using a Thermo 8-channel Multidrop Combi dispenser. Next, 10 μl of a 4×m-cGAS (0.120 μM) or h-cGAS (0.4 μM) solution in the reaction buffer supplemented with 2 mM DTT was added to appropriate wells. Similar sets of reactions without cGAS or the inhibitor was set by adding the buffer alone. The reactions with the plates sealed were incubated at 37° C. (1 hour for m-cGAS and 3 hours for h-cGAS) and stopped by addition of 40 μl of the Kinase-Glo®Max. The luminescence was recorded in relative light units (RLUs) using a Biotek Synergy H1 Hybrid plate reader (BioTek, Winooski, VT). […] All reactions were run in triplicates and calculated using GraphPad Prism 9. The values represent mean IC50±S.D.

m-cGAS = m-cGAS (Mus musculus, UniProt Q8C6L5); experiment: Cell-free mouse cGAS enzyme inhibition assay (ATP depletion, Kinase-Glo Max); assay type: biochemical; settings: 1 h; for inhibition at 10 µM: read-out: m-cGAS, conc. 10 μM; for inhibition at 1 µM: read-out: m-cGAS, conc. 1 μM
Protocol: as §1

IFNB = experiment: THP1-Dual cells transfected with DNA, Ifnb expression (Quantiluc); assay type: cell-based; settings: Homo sapiens; for inhibition at 10 µM: THP-1, 10 μM; for inhibition at 30 µM: THP-1, 30 μM
Protocol: (§2) Evaluation of active cGAS inhibitors in THP1 cells (Table 3). Cellular activity of all compounds (in Table 3) was determined using THP1-Dual™ cells as described (Lama et. al., 2019). THP1-Dual™ cells (Invivogen) (50000 cells in 100 μl media) were seeded into each well of a 96-well plate and treated with compounds at various dilution for 4 hours. Subsequently, cells were transfected with DNA (2 ug/ml) and lipofectamine and incubate the cells were incubated overnight. Ifnb expression was measured in cell supernatant using Quantiluc, nfkb expression was determined using Quantiblue, and cell viability using Promega® CellTiter-Glo®.

THP1 cells = experiment: THP1-Dual cells, cell viability (CellTiter-Glo); assay type: cell-based
Protocol: as §2

Sequence of m-cGAS (Q8C6L5 whole entry): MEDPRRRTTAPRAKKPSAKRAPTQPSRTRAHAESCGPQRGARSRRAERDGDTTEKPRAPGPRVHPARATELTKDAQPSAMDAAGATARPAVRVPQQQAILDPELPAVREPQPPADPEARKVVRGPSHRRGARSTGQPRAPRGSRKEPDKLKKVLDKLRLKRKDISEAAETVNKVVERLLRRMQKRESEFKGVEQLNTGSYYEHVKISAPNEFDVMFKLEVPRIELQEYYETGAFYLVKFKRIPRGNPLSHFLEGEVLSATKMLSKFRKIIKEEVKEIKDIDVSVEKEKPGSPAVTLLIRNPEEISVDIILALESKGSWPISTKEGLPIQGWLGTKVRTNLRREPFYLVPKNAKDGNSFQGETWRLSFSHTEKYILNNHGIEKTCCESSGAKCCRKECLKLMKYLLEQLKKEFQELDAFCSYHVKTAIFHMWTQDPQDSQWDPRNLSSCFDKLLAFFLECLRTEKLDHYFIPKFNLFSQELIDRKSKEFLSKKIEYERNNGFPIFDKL
Sequence of h-cGAS (Q8N884 whole entry): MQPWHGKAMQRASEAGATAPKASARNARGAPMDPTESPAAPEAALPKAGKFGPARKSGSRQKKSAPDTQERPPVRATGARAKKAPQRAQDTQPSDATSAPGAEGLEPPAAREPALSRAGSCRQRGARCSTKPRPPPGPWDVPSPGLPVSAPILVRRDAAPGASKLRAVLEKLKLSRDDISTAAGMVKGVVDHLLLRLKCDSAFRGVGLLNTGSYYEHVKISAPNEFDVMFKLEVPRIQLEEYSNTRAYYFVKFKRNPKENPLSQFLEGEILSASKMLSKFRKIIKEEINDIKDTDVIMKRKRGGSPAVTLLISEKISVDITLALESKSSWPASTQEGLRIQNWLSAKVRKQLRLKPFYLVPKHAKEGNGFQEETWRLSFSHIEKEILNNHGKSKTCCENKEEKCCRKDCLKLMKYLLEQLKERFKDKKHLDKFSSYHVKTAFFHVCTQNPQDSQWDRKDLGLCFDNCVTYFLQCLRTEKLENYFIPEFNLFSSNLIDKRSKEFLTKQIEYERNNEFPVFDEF

Compound | inhibition at 1 µM (h-cGAS) [%] | inhibition at 10 µM (h-cGAS) [%] | inhibition at 10 µM (m-cGAS) [%] | inhibition at 10 µM (IFNB) [%] | inhibition at 30 µM (IFNB) [%] | Cell viability 10 μM (THP1 cells) | Cell viability 30 μM (THP1 cells) | inhibition at 1 µM (m-cGAS) [%]
Cn1ccc(-c2cc(Cl)c(Cl)c3sc4c(c23)CN(C(=O)CO)CC4)n1 [Compound 46] | 50 to 74 | 75 to 100 | 0 to 24 | 25 to 49 | 75 to 100 | +++ (+, ++, and +++ mean the compound respectively shows 25-49%; 50-74%; or 75-100% viability to cells) | ++ (+, ++, and +++ mean the compound respectively shows 25-49%; 50-74%; or 75-100% viability to cells) | –
CNc1ccc(-c2cc(Cl)c(Cl)c3sc4c(c23)CCN(C(=O)CO)C4)cn1 [Compound 66] | – | 0 to 24 | – | – | – | – | – | –
CC(C)(N)C(=O)N1CCc2sc3c(Cl)c(Cl)cc(-c4cc[nH]n4)c3c2C1 [Compound 55] | – | 0 to 24 | 0 to 24 | – | – | – | – | –
O=C(CO)N1CCc2sc3c(Cl)c(Cl)cc(-c4cc[nH]n4)c3c2C1 [Compound 50] | – | 0 to 24 | 0 to 24 | – | – | – | – | –
O=C(CO)N1CCc2c(sc3c(Cl)c(Cl)cc(-c4ccco4)c23)C1 [Compound 64] | 0 to 24 | 25 to 49 | – | – | – | – | – | –
CC(C)(N)C(=O)N1CCc2c(sc3c(Cl)c(Cl)cc(-c4cn[nH]c4)c23)C1 [Compound 85] | 0 to 24 | 50 to 74 | – | 75 to 100 | 75 to 100 | + (+, ++, and +++ mean the compound respectively shows 25-49%; 50-74%; or 75-100% viability to cells) | − (Cell viability <24%, in THP1 cells is expressed as “−”) | –
O=C(CO)N1CCc2c(sc3c(Cl)c(Cl)cc(-c4cncs4)c23)C1 [Compound 70] | – | 0 to 24 | – | – | – | – | – | –
Cn1cc(-c2cc(Cl)c(Cl)c3nc4c(n23)CN(C(=O)CN)CC4)cn1 [Compound 101] | – | 0 to 24 | 0 to 24 | – | – | – | – | –
CC(C)(N)C(=O)N1CCc2oc3c(Cl)c(Cl)cc(-c4cc[nH]n4)c3c2C1 [Compound 34] | 25 to 49 | 50 to 74 | – | 75 to 100 | 75 to 100 | +++ (+, ++, and +++ mean the compound respectively shows 25-49%; 50-74%; or 75-100% viability to cells) | − (Cell viability <24%, in THP1 cells is expressed as “−”) | –
O=C(CO)N1CCc2oc3c(Cl)c(Cl)cc(-c4nccs4)c3c2C1 [Compound 31] | 50 to 74 | 75 to 100 | – | 50 to 74 | 50 to 74 | +++ (+, ++, and +++ mean the compound respectively shows 25-49%; 50-74%; or 75-100% viability to cells) | +++ (+, ++, and +++ mean the compound respectively shows 25-49%; 50-74%; or 75-100% viability to cells) | –
O=C(CO)N1CCc2c(sc3c(Cl)c(Cl)cc(-c4ccncc4)c23)C1 [Compound 69] | – | 0 to 24 | – | – | – | – | – | –
O=C(CO)N1CCc2c(sc3c(Cl)c(Cl)cc(-c4nccs4)c23)C1 [Compound 67] | – | 25 to 49 | – | – | – | – | – | –
CC(C)(C)OC(=O)N1CCCC1C(=O)N1CCc2[nH]c3c(Cl)c(Cl)cc(-c4ccc(N)nc4)c3c2C1 (stereo not shown) [Compound 13] | – | 0 to 24 | 0 to 24 | – | – | – | – | –
NCC(=O)N1CCc2nc3c(Cl)c(Cl)cc(-c4cncnc4)n3c2C1 [Compound 100] | – | 0 to 24 | 0 to 24 | – | – | – | – | –
Cn1c2c(c3c(-c4ccn[nH]4)cc(Cl)c(Cl)c31)CN(C(=O)C1CCCN1)CC2 (stereo not shown) [Compound 18] | – | 0 to 24 | 0 to 24 | – | – | – | – | –
O=C(CO)N1CCc2nc3c(Cl)c(Cl)cc(-c4cncnc4)n3c2C1 [Compound 98] | – | 0 to 24 | 0 to 24 | – | – | – | – | –
Cn1cc(-c2cc(Cl)c(Cl)c3oc4c(c23)CCN(C(=O)CN)C4)cn1 [Compound 40] | 50 to 74 | 75 to 100 | – | 75 to 100 | 75 to 100 | +++ (+, ++, and +++ mean the compound respectively shows 25-49%; 50-74%; or 75-100% viability to cells) | − (Cell viability <24%, in THP1 cells is expressed as “−”) | –

Compound | inhibition at 1 µM (h-cGAS) [%] | inhibition at 10 µM (h-cGAS) [%] | inhibition at 10 µM (m-cGAS) [%] | inhibition at 10 µM (IFNB) [%] | inhibition at 30 µM (IFNB) [%] | Cell viability 10 μM (THP1 cells) | Cell viability 30 μM (THP1 cells) | inhibition at 1 µM (m-cGAS) [%]
O=C(CO)N1CCc2oc3c(Cl)c(Cl)cc(-c4ccco4)c3c2C1 [Compound 30] | 0 to 24 | 50 to 74 | – | < 24 | 25 to 49 | +++ (+, ++, and +++ mean the compound respectively shows 25-49%; 50-74%; or 75-100% viability to cells) | +++ (+, ++, and +++ mean the compound respectively shows 25-49%; 50-74%; or 75-100% viability to cells) | –
O=C(CO)N1CCc2c(sc3c(Cl)c(Cl)ccc23)C1 [Compound 58] | 0 to 24 | 50 to 74 | 75 to 100 | – | – | – | – | –
O=C(CO)N1CCc2c(sc3c(Cl)c(Cl)cc(-c4cccnc4)c23)C1 [Compound 68] | – | 0 to 24 | – | – | – | – | – | –
O=C(CO)N1CCc2c(sc3c(Cl)c(Cl)cc(-c4cc[nH]n4)c23)C1 [Compound 61] | – | 25 to 49 | – | – | – | – | – | –
Nc1ccc(-c2cc(Cl)c(Cl)c3sc4c(c23)CN(C(=O)CO)CC4)cn1 [Compound 49] | – | 0 to 24 | 25 to 49 | – | – | – | – | –
Cn1c2c(c3c(-c4ccn[nH]4)cc(Cl)c(Cl)c31)CN(C(=O)C1CCCN1C(=O)OC(C)(C)C)CC2 (stereo not shown) [Compound 15] | – | 0 to 24 | 0 to 24 | – | – | – | – | –
Cn1ccc(-c2cc(Cl)c(Cl)c3oc4c(c23)CCN(C(=O)CN)C4)n1 [Compound 41] | 50 to 74 | 75 to 100 | – | 50 to 74 | 75 to 100 | +++ (+, ++, and +++ mean the compound respectively shows 25-49%; 50-74%; or 75-100% viability to cells) | − (Cell viability <24%, in THP1 cells is expressed as “−”) | –
Nc1ccc(-c2cc(Cl)c(Cl)c3[nH]c4c(c23)CN(C(=O)C2(N)CC2)CC4)cn1 [Compound 19] | – | 0 to 24 | 0 to 24 | – | – | – | – | –
O=C(CO)N1CCc2oc3c(Cl)c(Cl)cc(-c4cc[nH]n4)c3c2C1 [Compound 28] | 25 to 49 | 50 to 74 | – | 50 to 74 | 50 to 74 | +++ (+, ++, and +++ mean the compound respectively shows 25-49%; 50-74%; or 75-100% viability to cells) | +++ (+, ++, and +++ mean the compound respectively shows 25-49%; 50-74%; or 75-100% viability to cells) | –
O=C(CO)N1CCc2sc3c(Cl)c(Cl)cc(-c4cncnc4)c3c2C1 [Compound 47] | 0 to 24 | 50 to 74 | 50 to 74 | – | – | – | – | 0 to 24
O=C(CO)N1CCc2c(sc3c(Cl)c(Cl)cc(-c4cncnc4)c23)C1 [Compound 65] | – | 25 to 49 | 75 to 100 | – | – | – | – | 0 to 24
Cn1c2c(c3c(-c4ccc(N)nc4)cc(Cl)c(Cl)c31)CN(C(=O)C1CCCN1C(=O)OC(C)(C)C)CC2 (stereo not shown) [Compound 14] | – | 0 to 24 | 0 to 24 | – | – | – | – | –
Cn1ccc(-c2cc(Cl)c(Cl)c3sc4c(c23)CCN(C(=O)CO)C4)n1 [Compound 60] | – | 25 to 49 | 50 to 74 | – | – | – | – | 0 to 24
O=C(CO)N1CCc2oc3c(Cl)c(Cl)cc(-c4cn[nH]c4)c3c2C1 [Compound 29] | 25 to 49 | 75 to 100 | – | 50 to 74 | 75 to 100 | +++ (+, ++, and +++ mean the compound respectively shows 25-49%; 50-74%; or 75-100% viability to cells) | +++ (+, ++, and +++ mean the compound respectively shows 25-49%; 50-74%; or 75-100% viability to cells) | –
Cn1c2c(c3c(-c4ccc(O)nc4)cc(Cl)c(F)c31)CN(C(=O)CO)CC2 [Compound 2] | – | 0 to 24 | 0 to 24 | – | – | – | – | –
NCC(=O)N1CCc2c(oc3c(Cl)c(Cl)cc(-c4cncnc4)c23)C1 [Compound 39] | 0 to 24 | 75 to 100 | – | 25 to 49 | 75 to 100 | +++ (+, ++, and +++ mean the compound respectively shows 25-49%; 50-74%; or 75-100% viability to cells) | +++ (+, ++, and +++ mean the compound respectively shows 25-49%; 50-74%; or 75-100% viability to cells) | –
